Experimental data reported in patent publication US20100086931A1, “METHOD FOR ASSAYING ACTION OF ANTITUMOR AGENT USING DECREASE IN GENE EXPRESSION LEVEL AS INDEX” (Eisai R&D Management Co., Ltd., priority 2007, published 2010).

Test system: peripheral blood mononuclear cells (PBMC)
Assay: Microarray analysis (Human Genome U133 plus 2.0 array) of mRNA expression in PBMC treated with compound A
Format: cell-based
Conditions: 10 nM, ratio to control
Text: Since it is not easy to obtain a cancer tissue clinically, the measurement of the marker in hemocytes readily obtainable in peripheral blood would be more useful. Specifically blood was taken from a normal individual (volunteer) and peripheral blood mononuclear cells were purified and treated with compound A, followed by measurement of change in expression of the gene (mRNA) with the microarray (Human Genome […] plus 2.0 array: Affymetrix).
Ficoll-Paque PLUS solution (Amersham, 17-1440-02) was slowly added to the blood taken (with heparin added) from a healthy individual to form a layer underneath the blood (15 ml of Ficoll-Paque PLUS solution was added to 25 ml of blood). After the mixture was centrifuged at 1500 rpm for 30 min, the upper part containing platelets was removed and then a layer containing mononuclear cells was transferred to another tube. The cells were suspended in PBS and centrifuged at 1500 rpm for 5 min, followed by removal of the supernatant. After these steps were repeated twice, the cells were again suspended in RPMI1640 (containing 10% FBS). The number of the cells was then counted.
The cells were suspended in the medium to 5×10^6 cells/ml and plated 1 ml per well of a 24-well plate. Immediately, 111 μl of compound A (ten times more concentrated than the final concentrations) was added to the well (four wells per each concentration tested). The cells were then cultured in an incubator with 5% carbon dioxide gas at 37° C. Two or four hours later, the supernatant was collected and centrifuged at 1500 rpm for five minutes. TRI reagent (SIGMA) (1 ml) was added to each well of the plate from which the supernatant was removed to harvest the cells, which was added to the centrifuged pellet to dissolve. RNA was purified in accordance with the protocol of TRI reagent. RNA was further purified using RNeasy (QIAGEN). Absorbance at 260 nm was measured to quantify an amount of RNA.
A .cel file for each sample was obtained by using GeneChip Operating Software Ver.1.2 (Affymetrix). The RMA method was applied to ten of the .cel files obtained in the microarray experiment. Log signal intensity at a gene level was obtained by normalization of that at a probe level. By subtracting a control value from log signal intensity for each case, the log signal intensity was converted into a log signal ratio to the control. Genes were narrowed down in the basis of a log signal ratio, and a signal value. Specifically, among genes showing that the P value was 5% or less; the expression level in the untreated (control) is 100 or more by signal value; and the expression level when treated with 10 nM of compound A both for two and four hours decreased by 50% or more, genes of which expression level decreased to 25% or less upon the two-hour treatment were picked out. The software used is R2.2.1 (http://www.r-project.org/), affy package 1.8.1 (http://www.bioconductor.org).
Among genes showing, upon the treatment with compound A, that the P value was 5% or less; the expression level in the untreated (control) is 100 or more by signal value; and the expression level when treated with 10 nM of compound A both for two and four hours decreased by 50% or more, genes of which expression level decreased to 25% or less upon the two-hour treatment, and results thereof were shown in Table 2. For each gene evaluated, gene name (Gene Name), abbreviated name (Gene Symbol), accession number (Accession), alias name (Synonym), Probe set number in Human Genome U133 Plus 2.0 Array (Human Genome U133 Plus 2.0 Array Probeset ID), the expression level upon the two-hour treatment with E7107 (E7107 (2 h)), and the expression level upon the four-hour treatment with E7107 (E7107 (4 h)) were respectively shown in Table 2.

Structure (SMILES): CCC(O)C(C)C1OC1CC(C)(O)/C=C/C=C(\C)C1OC(=O)CC(O)CCC(C)(O)C(OC(=O)N2CCN(C3CCCCCC3)CC2)/C=C/C1C (stereo not drawn) [E7107, (8E,12E,14E)-7-((4-Cycloheptylpiperazin-1-yl)carbonyl)oxy-3,6,16,21-tetrahydroxy-6,10,12,16,20-pentamethyl-18,19-epoxytricosa-8,12,14-trien-11-olide]
- AHSA2 mRNA expression level (226665_at) (2 h): 0.21
- ATXN1 mRNA expression level (242230_at) (2 h): 0.25
- C13orf31 mRNA expression level (228937_at) (2 h): 0.19
- C15orf48 mRNA expression level (223484_at) (2 h): 0.06
- CCRL2//LOC642312 mRNA expression level (211434_s_at) (2 h): 0.22
- CLEC5A mRNA expression level (219890_at) (2 h): 0.08
- CSF2RA mRNA expression level (210340_s_at) (2 h): 0.10
- CTSL1 mRNA expression level (202087_s_at) (2 h): 0.21
- DHRS9 mRNA expression level (223952_x_at) (2 h): 0.25
- DOK3 mRNA expression level (223553_s_at) (2 h): 0.23
- FPRL2 mRNA expression level (230422_at) (2 h): 0.06
- GNA15 mRNA expression level (205349_at) (2 h): 0.22
- GPR84 mRNA expression level (223767_at) (2 h): 0.18
- GTF2H1 mRNA expression level (202451_at) (2 h): 0.18
- HNRPA2B1 mRNA expression level (225107_at) (2 h): 0.23
- HPSE mRNA expression level (222881_at) (2 h): 0.18
- IQCG mRNA expression level (235347_at) (2 h): 0.24
- LOC51315 mRNA expression level (233329_s_at) (2 h): 0.21
- MS4A7 mRNA expression level (224358_s_at) (2 h): 0.24
- NLRP12 mRNA expression level (1554952_s_at) (2 h): 0.23
- NRIP3 mRNA expression level (219557_s_at) (2 h): 0.07
- NSMCE4A mRNA expression level (228506_at) (2 h): 0.24
- OLR1 mRNA expression level (210004_at) (2 h): 0.05
- RAPH1 mRNA expression level (225188_at) (2 h): 0.19
- RBBP6 mRNA expression level (212781_at) (2 h): 0.23
- SLC25A19 mRNA expression level (223222_at) (2 h): 0.18
- SLC43A2 mRNA expression level (228918_at) (2 h): 0.17
- TNFAIP6 mRNA expression level (206026_s_at) (2 h): 0.19
- TNS1 mRNA expression level (221748_s_at) (2 h): 0.10
- TRAPPC4 mRNA expression level (217959_s_at) (2 h): 0.18
- Transcribed locus mRNA expression level (230098_at) (2 h): 0.22
- WSB1 mRNA expression level (201294_s_at) (2 h): 0.20
- ZCCHC6 mRNA expression level (220933_s_at) (2 h): 0.17
- AHSA2 mRNA expression level (226665_at) (4 h): 0.15
- ATXN1 mRNA expression level (242230_at) (4 h): 0.24
- C13orf31 mRNA expression level (228937_at) (4 h): 0.11
- C15orf48 mRNA expression level (223484_at) (4 h): 0.01
- CCRL2//LOC642312 mRNA expression level (211434_s_at) (4 h): 0.35
- CLEC5A mRNA expression level (219890_at) (4 h): 0.05
- CSF2RA mRNA expression level (210340_s_at) (4 h): 0.06
- CTSL1 mRNA expression level (202087_s_at) (4 h): 0.13
- DHRS9 mRNA expression level (223952_x_at) (4 h): 0.31
- DOK3 mRNA expression level (223553_s_at) (4 h): 0.26
- FPRL2 mRNA expression level (230422_at) (4 h): 0.04
- GNA15 mRNA expression level (205349_at) (4 h): 0.15
- GPR84 mRNA expression level (223767_at) (4 h): 0.20
- GTF2H1 mRNA expression level (202451_at) (4 h): 0.07
- HNRPA2B1 mRNA expression level (225107_at) (4 h): 0.20
- HPSE mRNA expression level (222881_at) (4 h): 0.29
- IQCG mRNA expression level (235347_at) (4 h): 0.23
- LOC51315 mRNA expression level (233329_s_at) (4 h): 0.13
- MS4A7 mRNA expression level (224358_s_at) (4 h): 0.04
- NLRP12 mRNA expression level (1554952_s_at) (4 h): 0.26
- NRIP3 mRNA expression level (219557_s_at) (4 h): 0.29
- NSMCE4A mRNA expression level (228506_at) (4 h): 0.18
- OLR1 mRNA expression level (210004_at) (4 h): 0.02
- RAPH1 mRNA expression level (225188_at) (4 h): 0.18
- RBBP6 mRNA expression level (212781_at) (4 h): 0.17
- SLC25A19 mRNA expression level (223222_at) (4 h): 0.20
- SLC43A2 mRNA expression level (228918_at) (4 h): 0.08
- TNFAIP6 mRNA expression level (206026_s_at) (4 h): 0.06
- TNS1 mRNA expression level (221748_s_at) (4 h): 0.09
- TRAPPC4 mRNA expression level (217959_s_at) (4 h): 0.07
- Transcribed locus mRNA expression level (230098_at) (4 h): 0.14
- WSB1 mRNA expression level (201294_s_at) (4 h): 0.17
- ZCCHC6 mRNA expression level (220933_s_at) (4 h): 0.08
